The text below walks through data of ChEMBL document CHEMBL3886554, “Ring-fused bicyclic pyridyl derivatives as FGFR4 inhibitors” (2016).

As a reminder, the IC50 is the concentration at which inhibition is half-maximal. Lower therefore signals inhibition by little substance.

The assay has as its target Fibroblast growth factor receptor 4 (Homo sapiens, UniProt P22455). Kind of assay: Biochemical Kinase Assay: Liquid handling and incubation steps were done on an Innovadyne Nanodrop Express equipped with a robotic arm (Thermo CatX, Caliper Twister II) and an incubator (Liconic STX40, Thermo Cytomat 2C450). The assay plates were prepared by addition of 50 nl per well of compound solution in 90% DMSO. The kinase reactions were started by stepwise addition of 4.5 ul per well of ….

Fibroblast growth factor receptor 4, sequence (P22455 whole entry): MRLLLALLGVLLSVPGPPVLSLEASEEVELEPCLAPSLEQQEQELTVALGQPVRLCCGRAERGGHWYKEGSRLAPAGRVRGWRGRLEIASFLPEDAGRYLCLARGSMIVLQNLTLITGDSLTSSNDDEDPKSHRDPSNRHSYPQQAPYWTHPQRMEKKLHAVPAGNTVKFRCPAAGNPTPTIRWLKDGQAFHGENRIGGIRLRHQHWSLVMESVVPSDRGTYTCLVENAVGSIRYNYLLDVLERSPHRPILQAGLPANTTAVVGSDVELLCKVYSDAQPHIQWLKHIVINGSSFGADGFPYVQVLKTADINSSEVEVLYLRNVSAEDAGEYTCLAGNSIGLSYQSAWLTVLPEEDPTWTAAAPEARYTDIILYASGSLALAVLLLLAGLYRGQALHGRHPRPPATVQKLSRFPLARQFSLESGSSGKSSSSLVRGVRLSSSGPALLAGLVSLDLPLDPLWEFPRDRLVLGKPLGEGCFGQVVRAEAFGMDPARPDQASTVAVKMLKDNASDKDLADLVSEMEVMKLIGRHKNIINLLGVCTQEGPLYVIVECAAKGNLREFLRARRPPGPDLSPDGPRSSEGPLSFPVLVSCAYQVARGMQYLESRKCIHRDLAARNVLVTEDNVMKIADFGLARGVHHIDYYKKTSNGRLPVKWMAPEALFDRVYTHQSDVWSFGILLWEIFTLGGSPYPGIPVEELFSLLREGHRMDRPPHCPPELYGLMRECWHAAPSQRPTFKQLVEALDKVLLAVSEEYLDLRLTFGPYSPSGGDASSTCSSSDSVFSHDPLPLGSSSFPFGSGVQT

`CC(C)Oc1cc(NC(=O)N2CCCc3cc(CN(C)C(=O)CO)c(C=O)nc32)ncc1C#N` showed an IC50 of 0.3 nM.
